Earlier results, collected in paper PMC10384408, “Anticancer Tungstenocenes with a Diverse Set of (O,O–), (O,S–) and (O,N–) Chelates—A Detailed Biological Study Using an Improved Evaluation via 3D Spheroid Models” (Pharmaceutics, 2023).

Assays:
Details in all cases: MTT assay, 96 h; cited from earlier work
[1] = tested on: A549 (non-small cell lung carcinoma) cells
[2] = tested on: SW480 (colon carcinoma) cells
[3] = tested on: CH1/PA-1 (ovarian teratocarcinoma) cells

Structure (SMILES) | IC50 [1] [µM] | IC50 [2] [µM] | IC50 [3] [µM]
Cc1occc(=O)c1[O-].F[P-](F)(F)(F)(F)F.[Mo+4].c1cc[cH-]c1.c1cc[cH-]c1 [[Cp2Mo(L1)]PF6] | > 200 | > 200 | > 200
Cc1occc(=S)c1[O-].F[P-](F)(F)(F)(F)F.[Mo+4].c1cc[cH-]c1.c1cc[cH-]c1 [[Cp2Mo(L2)]PF6] | 106 ± 15 | 55 ± 9 | 29 ± 10
F[P-](F)(F)(F)(F)F.O=c1c([O-])c(-c2ccc(Cl)cc2)oc2ccccc12.[Mo+4].c1cc[cH-]c1.c1cc[cH-]c1 [[Cp2Mo(L3)]PF6] | 24 ± 4 | 5.6 ± 0.2 | 1.7 ± 0.4
F[P-](F)(F)(F)(F)F.[Mo+4].[O-]c1c(-c2ccc(Cl)cc2)oc2ccccc2c1=S.c1cc[cH-]c1.c1cc[cH-]c1 [[Cp2Mo(L4)]PF6] | 5.7 ± 1 | 1.6 ± 0.2 | 0.72 ± 0.13
F[P-](F)(F)(F)(F)F.O=C([O-])c1ccccn1.[Mo+4].c1cc[cH-]c1.c1cc[cH-]c1 [[Cp2Mo(L5)]PF6] | > 200 | > 200 | > 200
